Drawing on PMC9897768, “Discovery of new 6-ureido/amidocoumarins as highly potent and selective inhibitors for the tumour-relevant carbonic anhydrases IX and XII” (Journal of Enzyme Inhibition and Medicinal Chemistry, 2023), this text covers Ki, melting point and inhibition for six compounds.

Structures are written as SMILES. Some results are limits rather than exact numbers.

Chain of hCA XII (O43570 25-354): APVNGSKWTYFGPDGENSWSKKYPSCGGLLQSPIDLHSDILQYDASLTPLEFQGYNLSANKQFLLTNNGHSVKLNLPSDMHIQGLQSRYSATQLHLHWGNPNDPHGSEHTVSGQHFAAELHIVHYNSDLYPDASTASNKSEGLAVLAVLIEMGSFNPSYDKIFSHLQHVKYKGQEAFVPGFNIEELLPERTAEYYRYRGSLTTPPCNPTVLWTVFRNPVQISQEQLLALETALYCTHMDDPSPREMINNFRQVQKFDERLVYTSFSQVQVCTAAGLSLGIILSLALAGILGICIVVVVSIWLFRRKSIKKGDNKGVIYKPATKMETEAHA

The first data set deals with hCA IX (Homo sapiens, UniProt Q16790). In words: stopped-flow CO2 hydrase assay, hCA IX. The data set is classed as biochemical. Particulars: incubation time 6 h, mean of three experiments. As to the method: (§1) The target coumarins 5a–p and 7a–c were examined for their CA inhibitory actions towards the ubiquitous CA I and II (cytosolic) as well as the tumour-associated CA IX and XII isozymes by the use of a stopped-flow CO2 hydrase assay, using acetazolamide (AZA) as a reference compound.
(§2) The experimental procedures utilised for CA inhibitory assay of the target compounds were carried out as described earlier, and presented in the Supplementary Materials.
On to `O=C(Nc1cccc(C(F)(F)F)c1)Nc1ccc2oc(=O)ccc2c1` [Compound 5a, 1-(2-Oxo-2H-chromen-6-yl)-3-(3-(trifluoromethyl)phenyl)urea], for which the Ki (as a rule, the equilibrium dissociation constant of an inhibitor or competing ligand from its target) was 45.9 nM.

For `O=C(Nc1ccc(C(F)(F)F)cc1)Nc1ccc2oc(=O)ccc2c1` [Compound 5b], the Ki is 71.4 nM.

The compound `O=C(Nc1ccc(F)cc1)Nc1ccc2oc(=O)ccc2c1` [Compound 5c, 1-(4-Fluorophenyl)-3-(2-oxo-2H-chromen-6-yl)urea] gave a Ki of 41.5 nM.

`O=C(Nc1ccc(Br)cc1)Nc1ccc2oc(=O)ccc2c1` [Compound 5d, 1-(4-Bromophenyl)-3-(2-oxo-2H-chromen-6-yl)urea] showed a Ki of 70.6 nM.

Regarding `CCCCc1ccc(NC(=O)Nc2ccc3oc(=O)ccc3c2)cc1` [Compound 5e, 1-(4-Butylphenyl)-3-(2-oxo-2H-chromen-6-yl)urea], the Ki worked out at 54.7 nM.

Consider `CCCCOc1ccc(NC(=O)Nc2ccc3oc(=O)ccc3c2)cc1` [Compound 5f, 1-(4-Butoxyphenyl)-3-(2-oxo-2H-chromen-6-yl)urea], for which the inhibitory constant (Ki) turned out to be 32.5 nM.

Tested on in another data set: not given
Assay: not given
Details: not given
As to `O=C(Nc1cccc(C(F)(F)F)c1)Nc1ccc2oc(=O)ccc2c1` [Compound 5a, 1-(2-Oxo-2H-chromen-6-yl)-3-(3-(trifluoromethyl)phenyl)urea], the melting point (usually the temperature of the solid-liquid transition) was 252 to 254 °C.

In turn, `O=C(Nc1ccc(C(F)(F)F)cc1)Nc1ccc2oc(=O)ccc2c1` [Compound 5b] had a melting point of 276 to 278 °C.

Consider `O=C(Nc1ccc(F)cc1)Nc1ccc2oc(=O)ccc2c1` [Compound 5c, 1-(4-Fluorophenyl)-3-(2-oxo-2H-chromen-6-yl)urea], for which the melting point lay in the range of 249 to 250 °C.

In turn, `O=C(Nc1ccc(Br)cc1)Nc1ccc2oc(=O)ccc2c1` [Compound 5d, 1-(4-Bromophenyl)-3-(2-oxo-2H-chromen-6-yl)urea] returned a melting point of 257 to 258 °C.

Compound `CCCCc1ccc(NC(=O)Nc2ccc3oc(=O)ccc3c2)cc1` [Compound 5e, 1-(4-Butylphenyl)-3-(2-oxo-2H-chromen-6-yl)urea] returned a melting point of 223 to 224 °C.

Take `CCCCOc1ccc(NC(=O)Nc2ccc3oc(=O)ccc3c2)cc1` [Compound 5f, 1-(4-Butoxyphenyl)-3-(2-oxo-2H-chromen-6-yl)urea]: the melting point is 234 to 235 °C.

In a further data set the target is hCA I (Homo sapiens, UniProt P00915). In words: stopped-flow CO2 hydrase assay, hCA I. The data set is classed as biochemical. The settings on record: incubation time 6 h, mean of three experiments. As to the method: as §1, §2
Chain of hCA I (P00915 whole entry): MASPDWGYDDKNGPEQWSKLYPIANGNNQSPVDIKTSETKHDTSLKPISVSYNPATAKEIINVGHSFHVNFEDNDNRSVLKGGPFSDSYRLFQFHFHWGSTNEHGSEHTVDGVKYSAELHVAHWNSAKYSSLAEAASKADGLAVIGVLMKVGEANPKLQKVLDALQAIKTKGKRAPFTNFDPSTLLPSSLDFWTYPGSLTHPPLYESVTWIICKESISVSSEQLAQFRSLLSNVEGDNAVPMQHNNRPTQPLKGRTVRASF
The compound `O=C(Nc1cccc(C(F)(F)F)c1)Nc1ccc2oc(=O)ccc2c1` [Compound 5a, 1-(2-Oxo-2H-chromen-6-yl)-3-(3-(trifluoromethyl)phenyl)urea] registered an inhibition constant Ki greater than 100000 nM.

`O=C(Nc1ccc(C(F)(F)F)cc1)Nc1ccc2oc(=O)ccc2c1` [Compound 5b] came in with a Ki greater than 100000 nM.

As for `O=C(Nc1ccc(F)cc1)Nc1ccc2oc(=O)ccc2c1` [Compound 5c, 1-(4-Fluorophenyl)-3-(2-oxo-2H-chromen-6-yl)urea], the Ki was greater than 100000 nM.

`O=C(Nc1ccc(Br)cc1)Nc1ccc2oc(=O)ccc2c1` [Compound 5d, 1-(4-Bromophenyl)-3-(2-oxo-2H-chromen-6-yl)urea] returned a Ki greater than 100000 nM.

`CCCCc1ccc(NC(=O)Nc2ccc3oc(=O)ccc3c2)cc1` [Compound 5e, 1-(4-Butylphenyl)-3-(2-oxo-2H-chromen-6-yl)urea] returned a Ki greater than 100000 nM.

The compound `CCCCOc1ccc(NC(=O)Nc2ccc3oc(=O)ccc3c2)cc1` [Compound 5f, 1-(4-Butoxyphenyl)-3-(2-oxo-2H-chromen-6-yl)urea] had a Ki greater than 100000 nM.

The test system of the next data set is MCF-7 cells. Description: MTT antiproliferative assay, MCF-7. The data set is classed as cell-based, human. The settings on record: Homo sapiens, MCF7, MCF7, 10 µM, mean ± SEM of three experiments, read-out: % Growth inhibition MCF7 10 µM. Here is the method:
(§3) Encouraged by the favourable selectivity profile of ureidocoumarins 5a–p and amidocoumarins 7a–c towards hCA IX and hCA XII, they were further examined for their prospective antiproliferative activity against human colorectal (HCT-116) and breast (MCF-7) cancer cell lines, adopting the MTT assay.
(§4) The evaluation of anticancer activity of the target compounds was conducted by MTT assay adopting the literature procedure.
A general note: Tetrazolium dyes change colour on reduction, which living cells bring about.
Turning to `O=C(Nc1cccc(C(F)(F)F)c1)Nc1ccc2oc(=O)ccc2c1` [Compound 5a, 1-(2-Oxo-2H-chromen-6-yl)-3-(3-(trifluoromethyl)phenyl)urea], the inhibition (in general, the share of the control response that was lost under treatment) at 10 µM stood at 3.7 ± 1.9%.

In the case of `O=C(Nc1ccc(C(F)(F)F)cc1)Nc1ccc2oc(=O)ccc2c1` [Compound 5b], the inhibition at 10 µM was determined as 4.2 ± 1.4%.

Regarding `O=C(Nc1ccc(F)cc1)Nc1ccc2oc(=O)ccc2c1` [Compound 5c, 1-(4-Fluorophenyl)-3-(2-oxo-2H-chromen-6-yl)urea], the inhibition at 10 µM stood at 9.5 ± 4.2%.

As for `O=C(Nc1ccc(Br)cc1)Nc1ccc2oc(=O)ccc2c1` [Compound 5d, 1-(4-Bromophenyl)-3-(2-oxo-2H-chromen-6-yl)urea], the inhibition at 10 µM worked out at 18.2 ± 3.2%.

`CCCCc1ccc(NC(=O)Nc2ccc3oc(=O)ccc3c2)cc1` [Compound 5e, 1-(4-Butylphenyl)-3-(2-oxo-2H-chromen-6-yl)urea]: the inhibition at 10 µM amounted to 38.2 ± 2.5%.

Regarding `CCCCOc1ccc(NC(=O)Nc2ccc3oc(=O)ccc3c2)cc1` [Compound 5f, 1-(4-Butoxyphenyl)-3-(2-oxo-2H-chromen-6-yl)urea], the inhibition at 10 µM was 32.3 ± 2.6%.

Still in this data set, the particulars now being: Homo sapiens, MCF7, MCF7, 100 µM, mean ± SEM of three experiments, read-out: % Growth inhibition MCF7 100 µM.
Turning to `O=C(Nc1cccc(C(F)(F)F)c1)Nc1ccc2oc(=O)ccc2c1` [Compound 5a, 1-(2-Oxo-2H-chromen-6-yl)-3-(3-(trifluoromethyl)phenyl)urea], the inhibition at 100 µM was found to be 34.7 ± 4.4%.

As to `O=C(Nc1ccc(C(F)(F)F)cc1)Nc1ccc2oc(=O)ccc2c1` [Compound 5b], the inhibition at 100 µM worked out at 77.8 ± 5.1%.

With `O=C(Nc1ccc(F)cc1)Nc1ccc2oc(=O)ccc2c1` [Compound 5c, 1-(4-Fluorophenyl)-3-(2-oxo-2H-chromen-6-yl)urea], the inhibition at 100 µM turned out to be 13.5 ± 4.3%.

As for `O=C(Nc1ccc(Br)cc1)Nc1ccc2oc(=O)ccc2c1` [Compound 5d, 1-(4-Bromophenyl)-3-(2-oxo-2H-chromen-6-yl)urea], the inhibition at 100 µM turned out to be 18.5 ± 4.5%.

Consider `CCCCc1ccc(NC(=O)Nc2ccc3oc(=O)ccc3c2)cc1` [Compound 5e, 1-(4-Butylphenyl)-3-(2-oxo-2H-chromen-6-yl)urea], for which the inhibition at 100 µM is 46.4 ± 4.9%.

With `CCCCOc1ccc(NC(=O)Nc2ccc3oc(=O)ccc3c2)cc1` [Compound 5f, 1-(4-Butoxyphenyl)-3-(2-oxo-2H-chromen-6-yl)urea], the inhibition at 100 µM turned out to be 46.9 ± 3.4%.

Another data set concerns the target hCA XII (Homo sapiens, UniProt O43570). Description: stopped-flow CO2 hydrase assay, hCA XII. The data set is classed as biochemical. The settings on record: incubation time 6 h, mean of three experiments. As to the method:
as §1, §2
As for `O=C(Nc1cccc(C(F)(F)F)c1)Nc1ccc2oc(=O)ccc2c1` [Compound 5a, 1-(2-Oxo-2H-chromen-6-yl)-3-(3-(trifluoromethyl)phenyl)urea], affinity was put at a Ki of 26.2 nM.

Turning to `O=C(Nc1ccc(C(F)(F)F)cc1)Nc1ccc2oc(=O)ccc2c1` [Compound 5b], the Ki stood at 38.5 nM.

In the case of `O=C(Nc1ccc(F)cc1)Nc1ccc2oc(=O)ccc2c1` [Compound 5c, 1-(4-Fluorophenyl)-3-(2-oxo-2H-chromen-6-yl)urea], the inhibitory constant (Ki) came to 40.2 nM.

Compound `O=C(Nc1ccc(Br)cc1)Nc1ccc2oc(=O)ccc2c1` [Compound 5d, 1-(4-Bromophenyl)-3-(2-oxo-2H-chromen-6-yl)urea] came in with a Ki of 51.1 nM.

Regarding `CCCCc1ccc(NC(=O)Nc2ccc3oc(=O)ccc3c2)cc1` [Compound 5e, 1-(4-Butylphenyl)-3-(2-oxo-2H-chromen-6-yl)urea], the affinity, expressed as Ki, was 95.1 nM.

With `CCCCOc1ccc(NC(=O)Nc2ccc3oc(=O)ccc3c2)cc1` [Compound 5f, 1-(4-Butoxyphenyl)-3-(2-oxo-2H-chromen-6-yl)urea], affinity was put at a Ki of 81.8 nM.

In the next data set the test system is HCT-116 cells. Description: MTT antiproliferative assay, HCT-116. The data set is classed as cell-based, human. Particulars: Homo sapiens, HCT-116, HCT116, 10 µM, mean ± SEM of three experiments, read-out: % Growth inhibition HCT116 10 µM. Here is the method: as §3, §4
Turning to `O=C(Nc1cccc(C(F)(F)F)c1)Nc1ccc2oc(=O)ccc2c1` [Compound 5a, 1-(2-Oxo-2H-chromen-6-yl)-3-(3-(trifluoromethyl)phenyl)urea], the inhibition at 10 µM is 8 ± 4.8%.

On to `O=C(Nc1ccc(C(F)(F)F)cc1)Nc1ccc2oc(=O)ccc2c1` [Compound 5b], for which the inhibition at 10 µM turned out to be 7.6 ± 2.8%.

On to `O=C(Nc1ccc(F)cc1)Nc1ccc2oc(=O)ccc2c1` [Compound 5c, 1-(4-Fluorophenyl)-3-(2-oxo-2H-chromen-6-yl)urea], for which the inhibition at 10 µM came to 10.9 ± 1.6%.

`O=C(Nc1ccc(Br)cc1)Nc1ccc2oc(=O)ccc2c1` [Compound 5d, 1-(4-Bromophenyl)-3-(2-oxo-2H-chromen-6-yl)urea]: the inhibition at 10 µM amounted to 25.4 ± 2.7%.

Turning to `CCCCc1ccc(NC(=O)Nc2ccc3oc(=O)ccc3c2)cc1` [Compound 5e, 1-(4-Butylphenyl)-3-(2-oxo-2H-chromen-6-yl)urea], the inhibition at 10 µM was 20.1 ± 2.5%.

`CCCCOc1ccc(NC(=O)Nc2ccc3oc(=O)ccc3c2)cc1` [Compound 5f, 1-(4-Butoxyphenyl)-3-(2-oxo-2H-chromen-6-yl)urea]: the inhibition at 10 µM came out at 15 ± 5.2%.

Staying with this data set, now noted: Homo sapiens, HCT-116, HCT116, 100 µM, mean ± SEM of three experiments, read-out: % Growth inhibition HCT116 100 µM.
Consider `O=C(Nc1cccc(C(F)(F)F)c1)Nc1ccc2oc(=O)ccc2c1` [Compound 5a, 1-(2-Oxo-2H-chromen-6-yl)-3-(3-(trifluoromethyl)phenyl)urea], for which the inhibition at 100 µM was found to be 21.9 ± 4.6%.

Consider `O=C(Nc1ccc(C(F)(F)F)cc1)Nc1ccc2oc(=O)ccc2c1` [Compound 5b], for which the inhibition at 100 µM amounted to 77 ± 4%.

Turning to `O=C(Nc1ccc(F)cc1)Nc1ccc2oc(=O)ccc2c1` [Compound 5c, 1-(4-Fluorophenyl)-3-(2-oxo-2H-chromen-6-yl)urea], the inhibition at 100 µM stood at 31.3 ± 4.6%.

For `O=C(Nc1ccc(Br)cc1)Nc1ccc2oc(=O)ccc2c1` [Compound 5d, 1-(4-Bromophenyl)-3-(2-oxo-2H-chromen-6-yl)urea], the inhibition at 100 µM is 31.7 ± 3.5%.

Consider `CCCCc1ccc(NC(=O)Nc2ccc3oc(=O)ccc3c2)cc1` [Compound 5e, 1-(4-Butylphenyl)-3-(2-oxo-2H-chromen-6-yl)urea], for which the inhibition at 100 µM stood at 65 ± 6%.

For `CCCCOc1ccc(NC(=O)Nc2ccc3oc(=O)ccc3c2)cc1` [Compound 5f, 1-(4-Butoxyphenyl)-3-(2-oxo-2H-chromen-6-yl)urea], the inhibition at 100 µM stood at 67.7 ± 0.6%.

A further data set concerns the target hCA II (Homo sapiens, UniProt P00918). In words: stopped-flow CO2 hydrase assay, hCA II. The class given is biochemical. The settings on record: incubation time 6 h, mean of three experiments. Here is the method: as §1, §2
In the case of `O=C(Nc1cccc(C(F)(F)F)c1)Nc1ccc2oc(=O)ccc2c1` [Compound 5a, 1-(2-Oxo-2H-chromen-6-yl)-3-(3-(trifluoromethyl)phenyl)urea], the Ki was greater than 100000 nM.

In the case of `O=C(Nc1ccc(C(F)(F)F)cc1)Nc1ccc2oc(=O)ccc2c1` [Compound 5b], the Ki is greater than 100000 nM.

Regarding `O=C(Nc1ccc(F)cc1)Nc1ccc2oc(=O)ccc2c1` [Compound 5c, 1-(4-Fluorophenyl)-3-(2-oxo-2H-chromen-6-yl)urea], the Ki was greater than 100000 nM.

On to `O=C(Nc1ccc(Br)cc1)Nc1ccc2oc(=O)ccc2c1` [Compound 5d, 1-(4-Bromophenyl)-3-(2-oxo-2H-chromen-6-yl)urea], for which the Ki was greater than 100000 nM.

In turn, `CCCCc1ccc(NC(=O)Nc2ccc3oc(=O)ccc3c2)cc1` [Compound 5e, 1-(4-Butylphenyl)-3-(2-oxo-2H-chromen-6-yl)urea] gave a Ki greater than 100000 nM.

`CCCCOc1ccc(NC(=O)Nc2ccc3oc(=O)ccc3c2)cc1` [Compound 5f, 1-(4-Butoxyphenyl)-3-(2-oxo-2H-chromen-6-yl)urea] gave a Ki greater than 100000 nM.
